Like-named read-outs stand apart in the source and are kept apart here.
Experiments:
Type in all cases: in vivo
Zea mays (ZEAMX) [1] = settings: for Post-emergence action against ZEAMX in %: crop plant compatibility, effect vs untreated controls
In short: (§1)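 Visual rating (% effect vs. untreated plants; 100% = plant death) made about 3 weeks after treatment. Plants had been sprayed at one-leaf stage, 2–3 weeks post-sowing, with aqueous WP/EC preparations containing 0.5% additive, 600 l/ha water volume; a, b, c mark dose levels.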

[2] = tested on: Triticum aestivum (TRZAS); settings: crop plant compatibility, effect vs untreated controls
In short: as §1

Oryza sativa (ORYSA) [3] = settings: crop plant compatibility
In short: as §1

Zea mays (ZEAMX) [4] = settings: pre-emergence, 80 g/ha, crop plant compatibility, in comparison to untreated controls
In short: (§2)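 Scoring: visual, % of untreated control, about 3 weeks after a pre-emergence application to the soil surface. Application used WP or EC formulations diluted in water with 0.5% additive at 600 l/ha; dosage levels are marked by suffixes a, b and c.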

Brassica napus (BRSNW) [5] = settings: 80 g/ha, crop plant compatibility, in comparison to untreated controls
In short: as §2

Oryza sativa (ORYSA) [6] = settings: pre-emergence, 80 g/ha, crop plant compatibility, in comparison to untreated controls
In short: as §2

[7] = tested on: Verconica persica (VERPE); experiment: Pre-emergence herbicidal action against VERPE; settings: dosage 80 g/ha
In short: (§3)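 Pre-emergence soil-surface spray of compound, formulated as wettable powder or emulsion concentrate, in aqueous suspension or emulsion with 0.5% additive (600 l/ha; rate 320 g/ha or less). Activity rated visually after roughly 3 weeks in the greenhouse as a percentage of untreated controls, 0% meaning no difference.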

Brassica napus (BRSNW) [8] = experiment: Post-emergence crop plant compatibility, BRSNW; settings: effect in comparison to untreated controls
Protocol: (§4) Seeds of monocotyledonous and dicotyledonous weeds and crop plants are placed in sandy loam in plastic or organic planting pots, covered with soil and cultivated in a greenhouse under controlled growth conditions. 2 to 3 weeks after sowing, the test plants are treated at the one-leaf stage. The compounds of the invention, formulated in the form of wettable powders (WP) or as emulsion concentrates (EC), are then sprayed onto the green parts of the plants as aqueous suspension or emulsion with addition of 0.5% additive at a water application rate of 600 l/ha (converted). After the test plants have been kept in the greenhouse under optimum growth conditions for about 3 weeks, the activity of the preparations is rated visually in comparison to untreated controls. For example, 100% activity=the plants have died, 0% activity=like control plants.
(§5) The observed effects on selected crop plants are reported here in comparison to the untreated controls (values in %). The appendices “a”, “b” and “c” give differentiation by dosage used with otherwise the same crop plants tested.

[9] = tested on: Alopecurus myosuroides (ALOMY); experiment: Post-emergence herbicidal action against ALOMY; settings: 80 g/ha, visual rating about 3 weeks after treatment vs untreated controls (100% = plants have died, 0% = like control plants)
In short: (§6)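 Values are percent visual activity (0% like control, 100% plants dead) after about 3 weeks in the greenhouse. Treatment: post-emergence spray at one-leaf stage, 600 l/ha spray volume, 0.5% additive, doses 320 g/ha or lower.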

Glycine max (GLXMA) [10] = settings: pre-emergence, crop plant compatibility, in comparison to untreated controls
In short: as §2

[11] = tested on: Triticum aestivum (TRZAS); settings: pre-emergence, crop plant compatibility, in comparison to untreated controls
In short: as §2

[12] = tested on: Amaranthus retroflexus (AMARE); experiment: Post-emergence herbicidal action against AMARE
In short: as §6

[13] = tested on: Amaranthus retroflexus (AMARE); experiment: Pre-emergence herbicidal action against AMARE; settings: 320 g/ha, visual scoring after about 3 weeks vs untreated controls
In short: as §3

Setaria viridis (SETVI) = experiment: Post-emergence herbicidal action against SETVI; settings: dosage 320 g/ha
In short: as §6

[14] = tested on: Polygonum convolvulus (POLCO); experiment: Post-emergence herbicidal action against POLCO; settings: dosage 320 g/ha
In short: as §6

Glycine max (GLXMA) [15] = experiment: Post-emergence crop plant compatibility, GLXMA
Protocol: as §4, §5

Viola tricolor (VIOTR) = experiment: Post-emergence herbicidal action against VIOTR; settings: 320 g/ha
In short: as §6

[16] = 80 g/ha, effect in comparison to untreated controls

For `COC(=O)C1CCCN1C(=O)COc1nn(-c2ccccn2)c(-c2ccc(F)nc2)c1Br` (centres unmarked) [Example I-110], the “Post-emergence action against ZEAMX in % (crop plant compatibility)” value (Zea mays (ZEAMX) [1]; 20 g/ha, ZEAMX, effect in comparison to untreated controls) was 10%, the “Post-emergence action against ZEAMX in %” value (Zea mays (ZEAMX) [1]; 80 g/ha) was 10% and the “Post-emergence action against TRZAS in %” value ([2]; 20 g/ha) was 0%. The “Post-emergence action against ORYSA in %” value (Oryza sativa (ORYSA) [3]; 20 g/ha, effect vs untreated controls) was 0%, the “Post-emergence action against ORYSA in %” value (Oryza sativa (ORYSA) [3]; [16]) was 10% and the “Pre-emergence action against ZEAMX in %” value (Zea mays (ZEAMX) [4]) was 10%. The “Pre-emergence action against BRSNW in %” value (Brassica napus (BRSNW) [5]) was 20%, the “Pre-emergence action against ORYSA in %” value (Oryza sativa (ORYSA) [6]) was 10% and the “Pre-emergence action against VERPE in %” value [7] was 100%. The “Post-emergence action against BRSNW in %” value (Brassica napus (BRSNW) [8]; 20 g/ha) was 10%, the “Post-emergence action against BRSNW in %” value (Brassica napus (BRSNW) [8]; 80 g/ha) was 20% and the “Post-emergence action against ALOMY in %” value [9] was 80%.
With `CCOC(=O)C[S+]([O-])c1nn(-c2ccccn2)c(-c2cncc(F)c2)c1Cl` (centres unmarked) [Example I-150] the “Post-emergence action against ZEAMX in %” value (Zea mays (ZEAMX) [1]; 80 g/ha) was 0%, the “Post-emergence action against ZEAMX in %” value (Zea mays (ZEAMX) [1]; 320 g/ha) was 0% and the “Post-emergence action against TRZAS in %” value ([2]; 80 g/ha) was 0%. The “Post-emergence action against TRZAS in %” value ([2]; 320 g/ha) was 10%, the “Post-emergence action against ORYSA in %” value (Oryza sativa (ORYSA) [3]; [16]) was 0% and the “Post-emergence action against ORYSA in %” value (Oryza sativa (ORYSA) [3]; 320 g/ha, effect in comparison to untreated controls) was 0%. The “Pre-emergence action against GLXMA in %” value (Glycine max (GLXMA) [10]; 80 g/ha) was 0%, the “Pre-emergence action against GLXMA in %” value (Glycine max (GLXMA) [10]; 320 g/ha) was 0% and the “Pre-emergence action against BRSNW in %” value (Brassica napus (BRSNW) [5]) was 0%. The “Pre-emergence action against TRZAS in %” value ([11]; 80 g/ha) was 0%, the “Pre-emergence action against TRZAS in %” value ([11]; 320 g/ha) was 0% and the “Pre-emergence action against ORYSA in %” value (Oryza sativa (ORYSA) [6]) was 20%. For the same compound, the “Post-emergence action against AMARE in %” value ([12]; 80 g/ha, visual rating about 3 weeks after treatment vs untreated controls (100% = plants have died, 0% = like control plants)) was 80%, the “Post-emergence action against AMARE in %” value ([12]; 320 g/ha, visual rating about 3 weeks after treatment) was 80% and the “Pre-emergence action against AMARE in %” value [13] was 80%. The “Post-emergence action against SETVI in %” value (Setaria viridis (SETVI)) was 80%, the “Post-emergence action against POLCO in %” value [14] was 90% and the “Post-emergence action against GLXMA” value (Glycine max (GLXMA) [15]; 320 g/ha, effect vs untreated controls) was 0%. For the same compound, the “Post-emergence action against GLXMA in %” value (Glycine max (GLXMA) [15]; post-emergence, 80 g/ha, effect in comparison to untreated controls) was 0% and the “Post-emergence action against VIOTR in %” value (Viola tricolor (VIOTR)) was 80%.
